In ChEMBL document CHEMBL5712916, “Frequent upregulation of G9a promotes RelB-dependent proliferation and survival in multiple myeloma” (Exp Hematol Oncol, 2020):
Active and inactive are the calls of the source. No cut-off for these calls is given here.

Assays:
[1] = system: JJN-3; assay: Cytotoxicity against human JJN-3 cells assessed as reduction in cell viability measured after 72 hrs by MTS assay; format: functional, cell-based; details: JJN-3, 72 h
[2] = system: JJN-3; assay: Cytotoxicity against human JJN-3 cells assessed as decrease in number of colonies incubated for 14 days by colony formation assay; format: functional, cell-based; details: time 14.0 day
[3] = system: KMS-12-BM; assay: Cytotoxicity against human KMS-12-BM cells assessed as reduction in cell viability measured after 72 hrs by Celltiter-glo luminescent cell viability assay; format: functional, cell-based
[4] = system: KMS-12-BM; assay: Cytotoxicity against human KMS-12-BM cells assessed as decrease in number of colonies incubated for 14 days by colony formation assay; format: functional, cell-based; details: time 14.0 day
[5] = Cytotoxicity against human CD38-positive cells assessed as reduction in cell viability measured after 72 hrs by Celltiter-glo luminescent cell viability assay; format: toxicity, cell-based
[6] = system: KMS-12-BM; assay: Cytotoxicity against human KMS-12-BM cells expressing shG9a assessed as reduction in cell viability measured after 72 hrs by Celltiter-glo luminescent cell viability assay; format: functional, cell-based
[7] = system: JJN-3; assay: Cytotoxicity against human JJN-3 cells expressing shG9a assessed as reduction in cell viability measured after 72 hrs by Celltiter-glo luminescent cell viability assay; format: functional, cell-based; details: JJN-3, 72 h
[8] = system: JJN-3; assay: Cytotoxicity against human JJN-3 cells assessed as reduction in colony size incubated for 14 days by colony formation assay; format: functional, cell-based; details: time 14.0 day
[9] = target: T1, Histone-lysine N-methyltransferase EHMT2 (Homo sapiens) (UniProt Q96KQ7); assay: Inhibition of G9a in human KMS-12-BM cells assessed as reduction in H3K9me2 level at cytotoxic IC50 measured after 72 hrs by Western blot analysis; format: cell-based
T1 sequence (whole entry): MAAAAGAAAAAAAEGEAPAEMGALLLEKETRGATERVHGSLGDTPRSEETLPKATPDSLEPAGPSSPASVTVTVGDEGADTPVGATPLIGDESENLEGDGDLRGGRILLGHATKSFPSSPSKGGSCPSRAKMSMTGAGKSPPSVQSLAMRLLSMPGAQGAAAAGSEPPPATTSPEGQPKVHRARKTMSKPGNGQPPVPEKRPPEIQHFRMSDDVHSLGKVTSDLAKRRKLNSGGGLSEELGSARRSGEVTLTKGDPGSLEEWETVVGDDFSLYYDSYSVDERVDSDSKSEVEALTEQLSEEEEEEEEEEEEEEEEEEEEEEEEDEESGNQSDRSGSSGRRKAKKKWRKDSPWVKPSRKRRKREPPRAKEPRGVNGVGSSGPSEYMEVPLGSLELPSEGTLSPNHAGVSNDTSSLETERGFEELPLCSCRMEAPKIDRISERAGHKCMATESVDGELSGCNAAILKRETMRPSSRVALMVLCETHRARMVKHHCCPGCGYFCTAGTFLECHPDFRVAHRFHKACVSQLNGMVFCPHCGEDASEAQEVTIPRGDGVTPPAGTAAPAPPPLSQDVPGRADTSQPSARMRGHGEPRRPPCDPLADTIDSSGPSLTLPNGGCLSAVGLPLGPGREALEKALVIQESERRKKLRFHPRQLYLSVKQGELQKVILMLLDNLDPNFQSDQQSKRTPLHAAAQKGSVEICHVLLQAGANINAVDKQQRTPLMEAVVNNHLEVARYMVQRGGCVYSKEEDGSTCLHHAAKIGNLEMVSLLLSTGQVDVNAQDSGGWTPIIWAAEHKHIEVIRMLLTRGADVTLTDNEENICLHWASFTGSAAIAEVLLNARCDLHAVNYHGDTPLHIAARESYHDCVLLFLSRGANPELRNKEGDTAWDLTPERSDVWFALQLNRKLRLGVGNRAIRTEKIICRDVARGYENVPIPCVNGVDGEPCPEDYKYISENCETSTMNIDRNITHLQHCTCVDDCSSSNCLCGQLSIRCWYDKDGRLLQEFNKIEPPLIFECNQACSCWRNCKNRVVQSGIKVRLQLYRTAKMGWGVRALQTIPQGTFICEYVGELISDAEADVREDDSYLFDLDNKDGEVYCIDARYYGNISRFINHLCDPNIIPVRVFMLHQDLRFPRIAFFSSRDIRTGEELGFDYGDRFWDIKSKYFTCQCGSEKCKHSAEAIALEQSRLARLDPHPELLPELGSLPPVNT

[10] = target: T1, Histone-lysine N-methyltransferase EHMT2 (Homo sapiens); assay: Inhibition of G9a in human JJN-3 cells assessed as increase in Bim mRNA expression at cytotoxic IC50 measured after 72 hrs by qRT-PCR analysis; format: cell-based
[11] = target: T1, Histone-lysine N-methyltransferase EHMT2 (Homo sapiens); assay: Inhibition of G9a in human JJN-3 cells assessed as increase in BMF mRNA expression at cytotoxic IC50 measured after 72 hrs by qRT-PCR analysis; format: cell-based
[12] = target: T1, Histone-lysine N-methyltransferase EHMT2 (Homo sapiens); assay: Inhibition of G9a in human JJN-3 cells assessed as decrease in NFKB2 expression at cytotoxic IC50 measured after 72 hrs by Western blot analysis; format: cell-based
[13] = Cytotoxicity against human MSC cells assessed as reduction in cell viability measured after 72 hrs by MTS assay; format: toxicity, cell-based
[14] = target: T1, Histone-lysine N-methyltransferase EHMT2 (Homo sapiens); assay: Inhibition of G9a in human JJN-3 cells assessed as decrease in p100 expression at cytotoxic IC50 measured after 72 hrs by Western blot analysis; format: cell-based
[15] = target: Histone-lysine N-methyltransferase EZH2 (Homo sapiens, UniProt Q15910); assay: Inhibition of EZH2 (unknown origin)
[16] = target: T1, Histone-lysine N-methyltransferase EHMT2 (Homo sapiens); assay: Inhibition of G9a in human JJN-3 cells assessed as decrease in p52 expression at cytotoxic IC50 measured after 72 hrs by Western blot analysis; format: cell-based
[17] = Cytotoxicity against human Bortezomib-resistant RPMI-8226 cells assessed as reduction in cell viability measured after 72 hrs by Celltiter-glo luminescent cell viability assay; format: functional, cell-based; details: Bortezomib-resistant RPMI-8226, 72 h
[18] = Cytotoxicity against human Bortezomib-resistant RPMI-8226 cells assessed as reduction in cell viability measured after 72 hrs by MTS assay; format: functional, cell-based; details: Bortezomib-resistant RPMI-8226, 72 h
[19] = system: RPMI-8226; assay: Cytotoxicity against human RPMI-8226 cells assessed as reduction in cell viability measured after 72 hrs by MTS assay; format: functional, cell-based; details: RPMI-8226, 72 h
[20] = system: KMS-12-BM; assay: Cytotoxicity against human KMS-12-BM cells assessed as reduction in cell viability measured after 72 hrs by MTS assay; format: functional, cell-based
[21] = system: KMS-12-BM; assay: Cytotoxicity against human KMS-12-BM cells expressing shNT assessed as reduction in cell viability measured after 72 hrs by Celltiter-glo luminescent cell viability assay; format: functional, cell-based
[22] = system: KMS-12-BM; assay: Effect on G9a expression in human KMS-12-BM cells at cytotoxic IC50 measured after 72 hrs by Western blot analysis; format: functional, cell-based
[23] = system: RPMI-8226; assay: Cytotoxicity against human RPMI-8226 cells assessed as reduction in cell viability measured after 72 hrs by Celltiter-glo luminescent cell viability assay; format: functional, cell-based; details: RPMI-8226, 72 h
[24] = target: T1, Histone-lysine N-methyltransferase EHMT2 (Homo sapiens); assay: Inhibition of G9a in human JJN-3 cells assessed as reduction in RelB mRNA expression at cytotoxic IC50 measured after 72 hrs by qRT-PCR analysis; format: cell-based
[25] = system: KMS-12-BM; assay: Cytotoxicity against human KMS-12-BM cells assessed as reduction in colony size incubated for 14 days by colony formation assay; format: functional, cell-based; details: time 14.0 day
[26] = system: JJN-3; assay: Cytotoxicity against human JJN-3 cells assessed as reduction in cell viability measured after 72 hrs by Celltiter-glo luminescent cell viability assay; format: functional, cell-based; details: JJN-3, 72 h
[27] = system: JJN-3; assay: Cytotoxicity against human JJN-3 cells expressing shNT assessed as reduction in cell viability measured after 72 hrs by Celltiter-glo luminescent cell viability assay; format: functional, cell-based; details: JJN-3, 72 h

Histone-lysine N-methyltransferase EZH2, sequence (Q15910 whole entry): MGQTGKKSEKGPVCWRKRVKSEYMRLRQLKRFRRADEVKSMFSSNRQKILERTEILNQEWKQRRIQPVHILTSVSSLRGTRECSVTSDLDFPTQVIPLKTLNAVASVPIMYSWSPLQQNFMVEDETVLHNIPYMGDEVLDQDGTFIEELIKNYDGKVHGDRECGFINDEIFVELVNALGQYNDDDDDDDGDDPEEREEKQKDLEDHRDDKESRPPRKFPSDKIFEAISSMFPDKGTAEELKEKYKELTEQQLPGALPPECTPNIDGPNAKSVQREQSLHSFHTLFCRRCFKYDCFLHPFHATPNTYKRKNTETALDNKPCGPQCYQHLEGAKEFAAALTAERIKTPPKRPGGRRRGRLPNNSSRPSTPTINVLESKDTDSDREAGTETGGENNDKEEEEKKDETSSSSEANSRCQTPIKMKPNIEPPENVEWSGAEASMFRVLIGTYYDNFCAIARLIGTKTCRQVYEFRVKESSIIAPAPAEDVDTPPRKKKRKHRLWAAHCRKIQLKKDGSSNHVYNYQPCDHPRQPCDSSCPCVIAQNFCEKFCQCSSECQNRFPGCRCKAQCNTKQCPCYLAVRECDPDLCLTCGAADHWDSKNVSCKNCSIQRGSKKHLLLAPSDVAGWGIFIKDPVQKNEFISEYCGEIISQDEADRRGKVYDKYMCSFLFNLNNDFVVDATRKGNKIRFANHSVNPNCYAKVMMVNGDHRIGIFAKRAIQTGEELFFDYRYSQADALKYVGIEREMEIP

- IC50 [15]: 5 µM
SMILES: COc1cc2c(NC3CCN(C(C)C)CC3)nc(N3CCC(F)(F)CC3)nc2cc1OCCCN1CCCC1
- IC50 [1]: 19 µM
- Activity [2]: Active
- IC50 [3]: 10.8 µM
- Activity [4]: Active
- IC50 at 72 h [5]: 6.91 µM
- IC50 [6]: 58.7 µM
- IC50 [7]: 17.8 µM
- Activity [8]: Active
- inhibition [9]: Active
- inhibition [10]: Active
- inhibition [11]: Active
- inhibition [12]: Active
- IC50 at 72 h [13]: 36.9 µM
- inhibition [14]: Active
- inhibition [16]: Active
- IC50 [17]: 25.4 µM
- IC50 [18]: 12.6 µM
- IC50 [19]: 26.9 µM
- IC50 [20]: 20.3 µM
- IC50 [21]: 23.7 µM
- Activity [22]: inactive
- IC50 [23]: 22 µM
- inhibition [24]: Active
- Activity [25]: Active
- IC50 [26]: 5.85 µM
- IC50 [27]: 6.81 µM
